Data reported in patent publication US9193665B2, “Synthesis of galanal compounds and analogues thereof” (Academia Sinica, priority 2013, dated 2015).

Assays:
DIO mice = assay: Oral glucose tolerance test (OGTT) in diet-induced obese (DIO) mice; format: in vivo; conditions: fasted DIO mice, compound by gavage 30 min before oral glucose 2 g/kg, glucose measured 0-90 min, FIG. 2A/2B
Method: DIO mice were male C56BL/6J-Narl mice at age of 13 to 15 weeks that have been fed with Western Diet (TestDiet 5342) for 6 to 8 weeks. DIO mice were fasted for five hours and then gavaged with a compound described herein (e.g., compounds RJ21 and RJ27) at indicated dose or with vehicle alone. Thirty minutes later, the mice were gavaged with glucose (2 g/kg body weight). The level of blood glucose was measured right before and every 30 minutes after the glucose challenge up to 90 minutes. The data are expressed as mean±SD and analyzed by Student's t-test using Prism (GraphPad).
The effect of the compounds to the homeostasis of blood glucose using oral glucose tolerance test (OGTT) was examined in this example. Fasted DIO mice were gavaged with RJ21, RJ27, or vehicle alone, and received an oral glucose challenge (2 g/kg body weight) 30 minutes later. The level of blood glucose was measured right before (0 minute) and every 30 minutes after the glucose gavage.

GLP-1 receptor = molecular target: T1, GLP-1 receptor (Rattus norvegicus, UniProt P32301); assay: GLP-1 dependent cAMP production from RIN-m5F cells (ELISA); format: cell-based; conditions: 0.001 mg/ml compound
T1 construct: endogenous in cells; host or cells: RIN-m5F cells
T1 sequence (P32301 22-463): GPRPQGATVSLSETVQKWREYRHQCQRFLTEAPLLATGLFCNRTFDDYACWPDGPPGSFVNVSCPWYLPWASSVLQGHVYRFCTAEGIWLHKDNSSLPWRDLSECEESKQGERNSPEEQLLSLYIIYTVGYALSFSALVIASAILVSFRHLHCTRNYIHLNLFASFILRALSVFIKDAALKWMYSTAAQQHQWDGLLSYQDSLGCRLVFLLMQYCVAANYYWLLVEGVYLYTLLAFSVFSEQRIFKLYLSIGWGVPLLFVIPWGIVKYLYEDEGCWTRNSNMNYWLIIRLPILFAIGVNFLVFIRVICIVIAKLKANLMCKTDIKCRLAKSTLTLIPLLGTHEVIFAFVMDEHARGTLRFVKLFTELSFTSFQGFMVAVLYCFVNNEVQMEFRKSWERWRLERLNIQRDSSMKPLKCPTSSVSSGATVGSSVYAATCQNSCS
Method: The cells were cultured in 37° C. with 5% CO2 for 42 hours prior to cAMP production experiment.
The stimulation process was terminated by replacing the stimulation medium with 0.05 ml per well of ice-cold absolute ethanol, and further incubated at −20° C. for 20 min. The cellular cAMP was extracted with 0.085 ml PBS after the ethanol in the wells were evaporated in a vacuum desiccator for 35 min.
The total cAMP from each well was determined by ELISA method according the procedure recommended by the supplier.

Row | Compound | blood glucose level versus vehicle-treated mice (DIO mice) | potentiation of the effect of GLP-1 on cAMP production (factor) (GLP-1 receptor; 30 nM GLP-1, RIN-m5F cells, 15 min) | cAMP generation by the compound by itself (agonist effect) (GLP-1 receptor; RIN-m5F cells, little cAMP response at 3 nM GLP-1)
1 | COC(=O)C1=CC[C@H]2[C@@](C=O)(CCC3C(C)(C)CCC[C@@]32C)[C@H](O)C1 (stereo partly shown) [RJ27] | significantly lower | – | –
2 | galanal B [RJ21] | significantly lower | 2 | did not affect
